# According to PubChem BioAssay (NCI):
#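 Growth conditions: 96-well plates. Treatment: test compound, 48 hours, 5 concentrations. Analysis: linear interpolation between bracketing concentrations; unreached endpoints set to highest concentration. The concentration for full growth arrest is given as TGI.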
# Key:
# Test in all cases: NCI tumour cell line growth inhibition, 48 h
# SF-268 CNS = test system: SF-268 CNS
# NCI-H226 lung = test system: NCI-H226 lung
# RPMI-8226 leukemia = test system: RPMI-8226 leukemia
# SK-MEL-28 melanoma = test system: SK-MEL-28 melanoma
# SN12C renal = test system: SN12C renal
# UACC-257 melanoma = test system: UACC-257 melanoma
# UO-31 renal = test system: UO-31 renal
# OVCAR-4 ovarian = test system: OVCAR-4 ovarian
# A549 NSCLC = test system: A549 NSCLC
# RXF 393 renal = test system: RXF 393 renal
# SF-539 CNS = test system: SF-539 CNS
# EKVX NSCLC = test system: EKVX NSCLC
# SNB-19 CNS = test system: SNB-19 CNS
# BT-549 breast = test system: BT-549 breast
# MDA-N = test system: MDA-N
# SR leukemia = test system: SR leukemia
# CAKI-1 renal = test system: CAKI-1 renal
# LOX IMVI melanoma = test system: LOX IMVI melanoma
# MOLT-4 leukemia = test system: MOLT-4 leukemia
# K-562 leukemia = test system: K-562 leukemia
# OVCAR-5 ovarian = test system: OVCAR-5 ovarian
# M14 melanoma = test system: M14 melanoma
# SNB-75 CNS = test system: SNB-75 CNS
# MDA-MB-435 = test system: MDA-MB-435
# NCI-H23 lung = test system: NCI-H23 lung
# 786-0 renal = test system: 786-0 renal
# SK-OV-3 ovarian = test system: SK-OV-3 ovarian
# NCI/ADR-RES ovarian = test system: NCI/ADR-RES ovarian
# DU-145 prostate = test system: DU-145 prostate
# TK-10 renal = test system: TK-10 renal
# UACC-62 melanoma = test system: UACC-62 melanoma
# CCRF-CEM leukemia = test system: CCRF-CEM leukemia
# U251 CNS = test system: U251 CNS
# MCF7 breast = test system: MCF7 breast
# NCI-H522 lung = test system: NCI-H522 lung
# KM12 colon = test system: KM12 colon
# HOP-92 NSCLC = test system: HOP-92 NSCLC
# SK-MEL-5 melanoma = test system: SK-MEL-5 melanoma
# SW-620 colon = test system: SW-620 colon
# SK-MEL-2 melanoma = test system: SK-MEL-2 melanoma
# IGROV1 ovarian = test system: IGROV1 ovarian
# MALME-3M melanoma = test system: MALME-3M melanoma
# HCT-15 colon = test system: HCT-15 colon
# PC-3 prostate = test system: PC-3 prostate
# A498 renal = test system: A498 renal
# HCT-116 colon = test system: HCT-116 colon
# MDA-MB-231 breast = test system: MDA-MB-231 breast
# HT29 colon = test system: HT29 colon
# HS 578T breast = test system: HS 578T breast
# HOP-62 NSCLC = test system: HOP-62 NSCLC
# NCI-H460 lung = test system: NCI-H460 lung
# SF-295 CNS = test system: SF-295 CNS
# HCC-2998 colon = test system: HCC-2998 colon
# COLO 205 colon = test system: COLO 205 colon
# HL-60(TB) leukemia = test system: HL-60(TB) leukemia
# OVCAR-3 ovarian = test system: OVCAR-3 ovarian
# ACHN renal = test system: ACHN renal
# T-47D breast = test system: T-47D breast
# OVCAR-8 ovarian = test system: OVCAR-8 ovarian
structure (smiles),measurement,setting,value
COc1ccc2c(c1)CCC(CN1CCN(CCOC(c3ccccc3)c3ccccc3)CC1)C2O (stereo not drawn),TGI,SF-268 CNS,31.5 µM
same,TGI,NCI-H226 lung,34.1 µM
same,TGI,RPMI-8226 leukemia,35.3 µM
same,TGI,SK-MEL-28 melanoma,31.9 µM
same,TGI,SN12C renal,26.8 µM
same,TGI,UACC-257 melanoma,27.2 µM
same,TGI,UO-31 renal,30 µM
same,TGI,OVCAR-4 ovarian,33.2 µM
same,TGI,A549 NSCLC,36 µM
same,TGI,RXF 393 renal,29.3 µM
same,TGI,SF-539 CNS,26.4 µM
same,TGI,EKVX NSCLC,24.4 µM
same,TGI,SNB-19 CNS,33.6 µM
same,TGI,BT-549 breast,27.1 µM
same,TGI,MDA-N,28.1 µM
same,TGI,SR leukemia,69.8 µM
same,TGI,CAKI-1 renal,31.5 µM
same,TGI,LOX IMVI melanoma,32.5 µM
same,TGI,MOLT-4 leukemia,35.7 µM
same,TGI,K-562 leukemia,44.1 µM
same,TGI,OVCAR-5 ovarian,30.5 µM
same,TGI,M14 melanoma,29.1 µM
same,TGI,SNB-75 CNS,34.5 µM
same,TGI,MDA-MB-435,32 µM
same,TGI,NCI-H23 lung,28.9 µM
same,TGI,786-0 renal,32.6 µM
same,TGI,SK-OV-3 ovarian,35.8 µM
same,TGI,NCI/ADR-RES ovarian,27.4 µM
same,TGI,DU-145 prostate,38.9 µM
same,TGI,TK-10 renal,28.6 µM
same,TGI,UACC-62 melanoma,26.7 µM
same,TGI,CCRF-CEM leukemia,53.4 µM
same,TGI,U251 CNS,28 µM
same,TGI,MCF7 breast,37.5 µM
same,TGI,NCI-H522 lung,31 µM
same,TGI,KM12 colon,44.6 µM
same,TGI,HOP-92 NSCLC,28.5 µM
same,TGI,SK-MEL-5 melanoma,21.9 µM
same,TGI,SW-620 colon,60.1 µM
same,TGI,SK-MEL-2 melanoma,33 µM
same,TGI,IGROV1 ovarian,30.1 µM
same,TGI,MALME-3M melanoma,32.4 µM
same,TGI,HCT-15 colon,23 µM
same,TGI,PC-3 prostate,26.3 µM
same,TGI,A498 renal,23.1 µM
same,TGI,HCT-116 colon,24.8 µM
same,TGI,MDA-MB-231 breast,29.7 µM
same,TGI,HT29 colon,18.2 µM
same,TGI,HS 578T breast,41.3 µM
same,TGI,HOP-62 NSCLC,38.3 µM
same,TGI,NCI-H460 lung,35.8 µM
same,TGI,SF-295 CNS,36 µM
same,TGI,HCC-2998 colon,16.1 µM
same,TGI,COLO 205 colon,27.7 µM
same,TGI,HL-60(TB) leukemia,15.2 µM
same,TGI,OVCAR-3 ovarian,31.8 µM
same,TGI,ACHN renal,25.6 µM
same,TGI,T-47D breast,47.8 µM
same,TGI,OVCAR-8 ovarian,28.9 µM
Cc1nc2ccccc2n1Cc1ccc(NC(=S)Nc2ccccc2)cc1,TGI,SF-268 CNS,> 100 µM
same,TGI,NCI-H226 lung,> 100 µM
same,TGI,RPMI-8226 leukemia,> 100 µM
same,TGI,SK-MEL-28 melanoma,> 100 µM
same,TGI,SN12C renal,> 100 µM
same,TGI,UACC-257 melanoma,> 100 µM
same,TGI,UO-31 renal,> 100 µM
same,TGI,OVCAR-4 ovarian,> 100 µM
same,TGI,A549 NSCLC,> 100 µM
same,TGI,RXF 393 renal,> 100 µM
same,TGI,SF-539 CNS,> 100 µM
same,TGI,EKVX NSCLC,> 100 µM
same,TGI,SNB-19 CNS,> 100 µM
same,TGI,BT-549 breast,> 100 µM
same,TGI,MDA-N,> 100 µM
same,TGI,SR leukemia,> 100 µM
same,TGI,CAKI-1 renal,> 100 µM
same,TGI,LOX IMVI melanoma,> 100 µM
same,TGI,MOLT-4 leukemia,> 100 µM
same,TGI,K-562 leukemia,> 100 µM
same,TGI,OVCAR-5 ovarian,> 100 µM
same,TGI,M14 melanoma,> 100 µM
same,TGI,SNB-75 CNS,> 100 µM
same,TGI,MDA-MB-435,> 100 µM
same,TGI,NCI-H23 lung,> 100 µM
same,TGI,786-0 renal,> 100 µM
same,TGI,SK-OV-3 ovarian,> 100 µM
same,TGI,NCI/ADR-RES ovarian,> 100 µM
same,TGI,DU-145 prostate,> 100 µM
same,TGI,TK-10 renal,> 100 µM
same,TGI,UACC-62 melanoma,> 100 µM
same,TGI,CCRF-CEM leukemia,> 100 µM
same,TGI,U251 CNS,> 100 µM
same,TGI,MCF7 breast,> 100 µM
same,TGI,NCI-H522 lung,> 100 µM
same,TGI,KM12 colon,> 100 µM
same,TGI,HOP-92 NSCLC,> 100 µM
same,TGI,SK-MEL-5 melanoma,56.6 µM
same,TGI,SW-620 colon,> 100 µM
same,TGI,SK-MEL-2 melanoma,> 100 µM
same,TGI,IGROV1 ovarian,> 100 µM
same,TGI,MALME-3M melanoma,> 100 µM
same,TGI,HCT-15 colon,> 100 µM
same,TGI,PC-3 prostate,> 100 µM
same,TGI,A498 renal,> 100 µM
same,TGI,HCT-116 colon,> 100 µM
same,TGI,MDA-MB-231 breast,> 100 µM
same,TGI,HT29 colon,> 100 µM
same,TGI,HS 578T breast,> 100 µM
same,TGI,HOP-62 NSCLC,> 100 µM
same,TGI,NCI-H460 lung,> 100 µM
same,TGI,SF-295 CNS,> 100 µM
same,TGI,HCC-2998 colon,> 100 µM
same,TGI,COLO 205 colon,> 100 µM
same,TGI,HL-60(TB) leukemia,> 100 µM
same,TGI,OVCAR-3 ovarian,> 100 µM
same,TGI,ACHN renal,> 100 µM
same,TGI,T-47D breast,> 100 µM
same,TGI,OVCAR-8 ovarian,> 100 µM
